# Measured values as given in ChEMBL document CHEMBL1201862, “PubChem BioAssay data set” (2004).
#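 Five compound concentrations were applied to cells in 96-well plates for 48 hours; endpoints were derived by simple linear interpolation of the resulting dose-response curve. Abbreviation: GI50, concentration required for 50% inhibition of growth.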 The source made the active and inactive calls. Cut-off read from the data, not from the text of the source: active = GI50 up to about 1.1 µM and inactive = higher.
# Key:
# Experiment in all cases: NCI tumour cell line growth inhibition, 48 h
# RXF 631 = system: RXF 631
# DLD-1 = system: DLD-1
# XF498 = system: XF498
# KM-20L2 = system: KM-20L2
# SNB-78 = system: SNB-78
# DMS-273 = system: DMS-273
# M19-MEL = system: M19-MEL
# BT-549 = system: BT-549
# HOP-18 = system: HOP-18
SMILES,GI50 (DLD-1),GI50 (SNB-78),GI50 (M19-MEL),GI50 (BT-549),further results
O=c1[nH]c(=O)n(C2CC(O)C(CO)O2)cc1/C=C/Br (stereo not drawn),> 100 µM (inactive),> 100 µM (inactive),> 100 µM (inactive),,GI50 (RXF 631): > 100 µM (inactive); GI50 (XF498): > 100 µM (inactive); GI50 (KM-20L2): > 100 µM (inactive); GI50 (DMS-273): > 100 µM (inactive)
O=C(Nc1cccc(Cl)c1)Nn1cnnc1,,,,> 100 µM (inactive),
N=C(N)N/N=C(/c1ccccc1)c1ccc(O)cc1O,,,,37.5 µM (inactive),
CC(=O)Oc1cc2c(cc1OCC(F)(F)F)[C@H]1CC[C@]3(C)[C@@H](OC(C)=O)CC[C@H]3[C@@H]1CC2=O,,,,18.4 µM (inactive),
Cc1c(-c2nc(N)nc(C3CC3)c2C)nc(N)nc1C1CC1,,,,> 100 µM (inactive),
CCOC(=O)C1C(=S)NC(=O)C1C#N (stereo not drawn),> 100 µM (inactive),,> 100 µM (inactive),,GI50 (RXF 631): > 100 µM (inactive); GI50 (KM-20L2): > 100 µM (inactive); GI50 (HOP-18): > 100 µM (inactive); GI50 (DMS-273): > 100 µM (inactive)
O=c1[nH]ncc2[nH]c3c(c12)CCc1ccccc1-3,,,,35.5 µM (inactive),
COc1ccc(SCc2cc(OC)ccc2OC)cc1,,,,16.1 µM (inactive),
CC(=O)OC[C@@]1(C)[C@@H]2[C@@H]3[C@@]4(CO[C@]3(C)C(=O)[C@@]3(O)C[C@H](C)[C@H](OC(C)=O)[C@@H]3[C@H]4OC(C)=O)[C@H](OC(=O)c3ccccc3)C[C@@H]21,,,,> 100 µM (inactive),
C=CCCCCCCC#CCCCCCCCCCC[C@@H]1C(=O)O[C@H](C)[C@@H]1O.CCCCCCCCC#CCCCCCCCCCC[C@@H]1C(=O)O[C@H](C)[C@@H]1O,,,,15.5 µM (inactive),
O=C(Nc1c(O)[nH]c(=S)[nH]c1=O)c1ccccn1,> 100 µM (inactive),> 100 µM (inactive),> 100 µM (inactive),,GI50 (RXF 631): > 100 µM (inactive); GI50 (KM-20L2): > 100 µM (inactive); GI50 (HOP-18): > 100 µM (inactive)
O=C(c1c(O)cc(O)cc1O)C1Cc2ccccc21 (stereo not drawn),> 100 µM (inactive),58.7 µM (inactive),> 100 µM (inactive),,GI50 (KM-20L2): > 100 µM (inactive); GI50 (HOP-18): 3.18 µM (inactive); GI50 (DMS-273): 48.2 µM (inactive)
CC1=C(C(=O)OCCc2ccc([N+](=O)[O-])cc2)C(c2ccccc2C(F)(F)F)C(C(=O)OC(C)C)=C(C)N1 (stereo not drawn),,,,3.21 µM (inactive),
Cc1nc(Cc2n[nH]c(C)n2)n[nH]1,,,,> 100 µM (inactive),
N/C(=N\N=C\c1nc2ccccc2o1)c1cnccn1,,,,> 100 µM (inactive),
Cc1cccc(/N=N/c2c(C)nn(C(=O)CC(=O)Nc3ccc(Cl)cc3)c2C)c1,,,,> 100 µM (inactive),
COc1nc(NC2OC(COC(C)=O)C(OC(C)=O)C(OC(C)=O)C2OC(C)=O)c(/N=C(\C)C(C)=O)c(=O)n1C (stereo not drawn),> 100 µM (inactive),> 100 µM (inactive),> 100 µM (inactive),,GI50 (XF498): > 100 µM (inactive); GI50 (KM-20L2): > 100 µM (inactive); GI50 (HOP-18): > 100 µM (inactive); GI50 (DMS-273): > 10 µM (inactive)
CN1C(=O)C(c2c[nH]c3ccccc23)N(C)C(=O)C1c1c[nH]c2ccccc12 (stereo not drawn),,,,> 100 µM (inactive),
Fc1ccccc1C1SCc2nc3ccccc3n21 (stereo not drawn),53.7 µM (inactive),> 100 µM (inactive),51.9 µM (inactive),,GI50 (RXF 631): 31.3 µM (inactive); GI50 (DMS-273): 31.3 µM (inactive)
N#CCCN(CCC#N)c1ccc(C(/N=N/c2ccc(Cl)cc2)=N\c2ccccc2)cc1,,,,3.33 µM (inactive),
O=C1CCC2(c3ccc(Cl)cc3)Nc3ncccc3N12 (stereo not drawn),> 100 µM (inactive),63 µM (inactive),> 100 µM (inactive),,GI50 (XF498): > 100 µM (inactive); GI50 (KM-20L2): > 100 µM (inactive)

SMILES,GI50 (DLD-1),GI50 (SNB-78),GI50 (M19-MEL),GI50 (BT-549),further results
COC(=O)CC1C(COC(C)=O)OC(n2cc(C)c(=O)[nH]c2=O)C1OC(C)=O (stereo not drawn),,,,> 100 µM (inactive),
COC(=O)C1C(=O)C=CN([C@H](C)c2ccccc2)[C@@H]1Cc1ccc(OC)c(OCc2ccccc2)c1I (stereo partly drawn),,,,18.3 µM (inactive),
O=[N+]([O-])c1ccc2nc(O)n[n+]([O-])c2c1,,,,> 100 µM (inactive),
COc1ccc(C(=O)/C=C/c2ccc3c(c2)OCO3)c(OCc2ccccc2)c1,,,,4.79 µM (inactive),
COc1ccc(/C=C/c2cnnc3ccccc23)cc1OC,,,,> 10 µM (inactive),
CC(C)(c1cn(Cc2ccccc2)c2ccccc12)c1cn(Cc2ccccc2)c2ccccc12,91.2 µM (inactive),> 100 µM (inactive),> 100 µM (inactive),,
O=C(Cc1nc2ccccc2s1)Nc1ccc(Cl)cc1,91.6 µM (inactive),> 100 µM (inactive),> 100 µM (inactive),,GI50 (XF498): > 100 µM (inactive); GI50 (KM-20L2): 50.6 µM (inactive); GI50 (DMS-273): 84.7 µM (inactive)
CC(C)(C)OC1=C(OC(C)(C)C)C(O)(c2ccccc2)C1=O (stereo not drawn),> 100 µM (inactive),> 100 µM (inactive),> 100 µM (inactive),,GI50 (RXF 631): > 100 µM (inactive); GI50 (HOP-18): > 100 µM (inactive); GI50 (DMS-273): > 100 µM (inactive)
CCC1CC2CN3CCc4c([nH]c5c(-c6c(OC)ccc7c8c([nH]c67)[C@]6(C(=O)OC)CC7CC(CC)C6N(CC8)C7)c(O)ccc45)[C@](C(=O)OC)(C2)C13 (stereo partly drawn),,,,17.3 µM (inactive),
CSc1ncc2c(C#N)c3n(C)c4ccccc4n3c(=O)c2n1,,,,> 100 µM (inactive),
COC1(OC)CCc2c(sc3ncnc(Nc4cccc(Br)c4)c23)C1,,,,94.2 µM (inactive),
CC1C=C(NCC2(CO)CCC2)N=C(N)N1 (stereo not drawn),,,,> 100 µM (inactive),
CCN(CC)CCCC(C)Nc1c(Sc2cnc3cc(Cl)ccc3c2NC(C)CCCN(CC)CC)cnc2cc(Cl)ccc12 (stereo not drawn),1.91 µM (inactive),2.73 µM (inactive),1.62 µM (inactive),,GI50 (RXF 631): 2.08 µM (inactive); GI50 (KM-20L2): 1.66 µM (inactive); GI50 (HOP-18): 2.17 µM (inactive); GI50 (DMS-273): 1.72 µM (inactive)
C[N+](C)(C)CCC(=O)N1C/C(=C\c2ccccc2)C(=O)/C(=C/c2ccccc2)C1,2.2 µM (inactive),6.65 µM (inactive),4.81 µM (inactive),2.33 µM (inactive),GI50 (XF498): 14.5 µM (inactive); GI50 (KM-20L2): 8 µM (inactive); GI50 (HOP-18): 12.2 µM (inactive); GI50 (DMS-273): 2.19 µM (inactive)
CC(C)/C(Cl)=N\OC(=O)Nc1ccc(F)c([N+](=O)[O-])c1,,,,13.4 µM (inactive),
CC(=O)c1c2c(cc3c1CC1(C3)Cc3cc4c(c(C(C)=O)c3C1)CCC4)CCC2,> 100 µM (inactive),> 100 µM (inactive),> 100 µM (inactive),,GI50 (RXF 631): > 100 µM (inactive); GI50 (XF498): > 100 µM (inactive); GI50 (HOP-18): > 100 µM (inactive)
Nc1ccc2c(c1)C(=O)c1ccc(F)cc1-2,,,,> 100 µM (inactive),
Cc1c(C)c2c(c(N)c1C#N)C(=O)N(CCN1CCNCC1)C2=O,,,,35.2 µM (inactive),
N#CCOc1cccc(C2(N3CC=CCC3)CCCCC2)c1,,,,> 100 µM (inactive),
Clc1ccc(C(OCn2ccnc2)c2nc3ccccc3[nH]2)c(Cl)c1 (stereo not drawn),,,,26.1 µM (inactive),
O=C(c1ccccc1)c1ccc2c(c1)nc1n2C(c2c(Cl)cccc2Cl)SC1 (stereo not drawn),,,,77.1 µM (inactive),

SMILES,GI50 (DLD-1),GI50 (SNB-78),GI50 (M19-MEL),GI50 (BT-549),further results
Cc1n[nH]c(=O)n1/N=C/c1ccc([N+](=O)[O-])cc1,,,,> 100 µM (inactive),
N#COc1ccc(Oc2ccccc2)cc1,> 100 µM (inactive),36.8 µM (inactive),> 100 µM (inactive),,GI50 (XF498): 97.3 µM (inactive); GI50 (KM-20L2): > 100 µM (inactive); GI50 (HOP-18): > 100 µM (inactive); GI50 (DMS-273): 22.5 µM (inactive)
NCC(O)CNCC/C=C\C/C=C\C/C=C\C/C=C\C/C=C\C/C=C\CCCCC/C=C\CCNCC(O)CN (stereo not drawn),,,,2.94 µM (inactive),
C[n+]1ccccc1/C=C/c1ccc2c(c1)OCO2,,,,> 10 µM (inactive),
CC(=O)OC1(C#N)CC2OC1C1C2N1C(=O)OC(C)(C)C (stereo not drawn),> 100 µM (inactive),> 100 µM (inactive),> 100 µM (inactive),,GI50 (XF498): > 100 µM (inactive); GI50 (KM-20L2): > 100 µM (inactive)
Nc1ncnc2sc(Nc3ccccc3)nc12,> 100 µM (inactive),> 100 µM (inactive),> 100 µM (inactive),,GI50 (RXF 631): 9.86 µM (inactive); GI50 (XF498): > 100 µM (inactive); GI50 (KM-20L2): 43.8 µM (inactive); GI50 (DMS-273): > 100 µM (inactive)
N#CC1CC2(CCN1C(=O)c1ccccc1)OCCO2 (stereo not drawn),> 100 µM (inactive),> 100 µM (inactive),> 100 µM (inactive),,GI50 (XF498): > 100 µM (inactive); GI50 (KM-20L2): > 100 µM (inactive); GI50 (HOP-18): > 100 µM (inactive); GI50 (DMS-273): > 100 µM (inactive)
O=C1CC(c2cccc([N+](=O)[O-])c2)C2(C(=O)NC(=S)NC2=O)C(c2cccc([N+](=O)[O-])c2)C1 (stereo not drawn),,,,26.2 µM (inactive),
COc1ccc2c3c1C(=O)CCCC3CO2 (stereo not drawn),> 100 µM (inactive),> 100 µM (inactive),> 100 µM (inactive),,GI50 (XF498): > 100 µM (inactive); GI50 (DMS-273): > 100 µM (inactive)
Cc1ccccc1Nc1cn(CCOc2ccccc2)c(=O)n(CCOc2ccccc2)c1=O,,,,> 100 µM (inactive),
CC(SC(=O)Nc1ccc(/N=N/c2ccccc2)cc1)C(=O)O (stereo not drawn),,> 100 µM (inactive),,,GI50 (KM-20L2): > 100 µM (inactive); GI50 (DMS-273): 48.6 µM (inactive)
CN(C)c1ccc(/C=c2/sc3nc(=O)c(-c4ccccc4NC(=O)C(F)(F)F)nn3c2=O)cc1,> 100 µM (inactive),> 100 µM (inactive),> 100 µM (inactive),,GI50 (XF498): > 100 µM (inactive); GI50 (DMS-273): > 100 µM (inactive)
O=C1c2ccccc2C(=O)c2c(NCC3CO3)cccc21 (stereo not drawn),,,,19 µM (inactive),
CN(C)c1ccc2c(SCC(=O)OCC(=O)[C@@]3(O)CC[C@H]4[C@@H]5CCC6=CC(=O)C=C[C@]6(C)[C@H]5C(=O)C[C@@]43C)c3ccc(N(C)C)cc3nc2c1,,,,9.59 µM (inactive),
CC1(C)[C@@H]2CC[C@@]1(C)C1(S[S+]1[O-])C21Cc2ccccc2C1 (stereo partly drawn),,,,32.1 µM (inactive),
CC1CCC2CC(=O)OC([C@@H]3C(=O)O[C@@H](C4=CCCC4)C4C(C)CCC43)C12 (stereo partly drawn),84.5 µM (inactive),> 100 µM (inactive),> 100 µM (inactive),,GI50 (XF498): > 100 µM (inactive); GI50 (KM-20L2): 92.3 µM (inactive); GI50 (HOP-18): > 100 µM (inactive); GI50 (DMS-273): > 100 µM (inactive)
Cc1c2cc[n+](C)cc2c(C)c2c1[nH]c1ccc(OCC(F)(F)F)cc12,1.4 µM (inactive),0.622 µM (active),2.14 µM (inactive),,GI50 (KM-20L2): 3.15 µM (inactive); GI50 (HOP-18): 1.96 µM (inactive); GI50 (DMS-273): 1.25 µM (inactive)
O=S(=O)(N/C(=N\O)Nc1ccc(Cl)cc1)c1ccc(S(=O)(=O)c2ccccc2)s1,,,,15.4 µM (inactive),
COc1ccc(-c2cc(=O)c3ccc(O)cc3o2)c(OC)c1OC,93.1 µM (inactive),,74.3 µM (inactive),,GI50 (XF498): 65.5 µM (inactive); GI50 (KM-20L2): 43 µM (inactive)
O=c1[nH]cc(F)c(=O)[nH]1 [FLUOROURACIL],,,,110 µM (inactive),
